Assay results reported in ChEMBL document CHEMBL1137069, “Design, synthesis and anti-microbial activity of 1H-pyrazole carboxylates” (2004).
“And” between values parts separate entries of the source, which are not always exact repeats. Equal values may be shown once.

Assays:
Assay type in all cases: functional
Thanatephorus cucumeris [1] = assay: Antifungal activity against Rhizoctonia solani was determined at 0.1 mg/mL concentration
[2] = Antifungal activity against Bipolaris oryzae was measured as mycelial growth at 0.5 mg/mL concentration
Staphylococcus aureus [3] = assay: Antibacterial activity against Staphylococcus aureus was determined at 0.5 mg/mL concentration
Escherichia coli [4] = assay: Antibacterial activity against Escherichia coli was determined at 0.5 mg/mL concentration
Pseudomonas aeruginosa [5] = assay: Antibacterial activity against Pseudomonas aeruginosa was determined at 0.1 mg/mL concentration
Pseudomonas aeruginosa [6] = assay: Antibacterial activity against Pseudomonas aeruginosa was determined at 0.5 mg/mL concentration
Alternaria alternata [7] = assay: Antifungal activity against Alternaria alternata was measured as mycelial growth at 0.5 mg/mL concentration
[8] = Antifungal activity against Bipolaris oryzae was measured as mycelial growth at 0.1 mg/mL concentration
Enterococcus faecalis [9] = assay: Antibacterial activity against […] was measured as area of inhibition zone at 0.1 mg/mL concentration
Fusarium oxysporum [10] = assay: Antifungal activity against Fusarium oxysporum was measured as mycelial growth at 0.1 mg/mL concentration
[11] = Antibacterial activity against Escherichia coli was measured as area of inhibition zone at 0.1 mg/mL concentration; conditions: for zone of inhibition at 100 µg/mL: Escherichia coli
Enterococcus faecalis [12] = assay: Antibacterial activity against […] was determined at 0.1 mg/mL concentration
Alternaria alternata [13] = assay: Antifungal activity against Alternaria alternata was determined at 0.5 mg/mL concentration
Fusarium oxysporum [14] = assay: Antifungal activity against Fusarium oxysporum was determined at 0.1 mg/mL concentration
Curvularia lunata [15] = assay: Antifungal activity against Curvularia lunata was measured as mycelial growth at 0.1 mg/mL concentration
[16] = Antifungal activity against Bipolaris oryzae was determined at 0.5 mg/mL concentration
Staphylococcus aureus [17] = assay: Antibacterial activity against Staphylococcus aureus was determined at 0.1 mg/mL concentration
Curvularia lunata [18] = assay: Antifungal activity against Curvularia lunata was measured as mycelial growth at 0.5 mg/mL concentration
Enterococcus faecalis [19] = assay: Antibacterial activity against […] was determined at 0.5 mg/mL concentration
Fusarium oxysporum [20] = assay: Antifungal activity against Fusarium oxysporum was determined at 0.5 mg/mL concentration
Escherichia coli [21] = assay: Antibacterial activity against Escherichia coli was determined at 0.1 mg/mL concentration
Curvularia lunata [22] = assay: Antifungal activity against Curvularia lunata was determined at 0.5 mg/mL concentration
Alternaria alternata [23] = assay: Antifungal activity against Alternaria alternata was determined at 0.1 mg/mL concentration
Thanatephorus cucumeris [24] = assay: Antifungal activity against Rhizoctonia solani was measured as mycelial growth at 0.5 mg/mL concentration
Fusarium oxysporum [25] = assay: Antifungal activity against Fusarium oxysporum was measured as mycelial growth at 0.5 mg/mL concentration
Curvularia lunata [26] = assay: Antifungal activity against Curvularia lunata was determined at 0.1 mg/mL concentration
Staphylococcus aureus [27] = assay: Antibacterial activity against Staphylococcus aureus was measured as area of inhibition zone at 0.1 mg/mL concentration; conditions: for zone of inhibition at 100 µg/mL: Staphylococcus aureus
Thanatephorus cucumeris [28] = assay: Antifungal activity against Rhizoctonia solani was measured as mycelial growth at 0.1 mg/mL concentration
[29] = Antifungal activity against Bipolaris oryzae was determined at 0.1 mg/mL concentration
Thanatephorus cucumeris [30] = assay: Antifungal activity against Rhizoctonia solani was determined at 0.5 mg/mL concentration
Alternaria alternata [31] = assay: Antifungal activity against Alternaria alternata was measured as mycelial growth at 0.1 mg/mL concentration
Pseudomonas aeruginosa [32] = assay: Antibacterial activity against Pseudomonas aeruginosa was measured as area of inhibition zone at 0.1 mg/mL concentration; conditions: for zone of inhibition at 100 µg/mL: Pseudomonas aeruginosa

| Compound | inhibition at 100 µg/mL (Thanatephorus cucumeris [1]) [%] | Mycelial growth [2] [cm] | inhibition at 500 µg/mL (Staphylococcus aureus [3]) [%] | inhibition at 500 µg/mL (Escherichia coli [4]) [%] | inhibition at 100 µg/mL (Pseudomonas aeruginosa [5]) [%] | inhibition at 500 µg/mL (Pseudomonas aeruginosa [6]) [%] | Mycelial growth (Alternaria alternata [7]) [cm] | Mycelial growth [8] [cm] | zone of inhibition at 100 µg/mL (Enterococcus faecalis [9]) [mm] | Mycelial growth (Fusarium oxysporum [10]) [cm] | Inhibition Zone [11] | zone of inhibition at 100 µg/mL [11] [mm] | inhibition at 100 µg/mL (Enterococcus faecalis [12]) [%] | inhibition at 500 µg/mL (Alternaria alternata [13]) [%] | inhibition at 100 µg/mL (Fusarium oxysporum [14]) [%] | Mycelial growth (Curvularia lunata [15]) [cm] | inhibition at 500 µg/mL [16] [%] | inhibition at 100 µg/mL (Staphylococcus aureus [17]) [%] | Mycelial growth (Curvularia lunata [18]) [cm] | inhibition at 500 µg/mL (Enterococcus faecalis [19]) [%] | other results |
| --- | --- | --- | --- | --- | --- | --- | --- | --- | --- | --- | --- | --- | --- | --- | --- | --- | --- | --- | --- | --- | --- |
| CCOC(=O)c1nn(-c2ccc([N+](=O)[O-])cc2[N+](=O)[O-])cc1C=O | 24.4 | 2.3 | 97.8 | 97.8 | 0 | 25.6 | 2.1 | 3.5 | 86 | 4.3 | 7.5 cm and 8.8 cm | 73 | 83.3 | 76.6 | 52.2 | 5.6 | 74.4 | 85.6 | 3.5 | 95.6 | inhibition at 500 µg/mL (Fusarium oxysporum [20]): 71.1%; inhibition at 100 µg/mL (Escherichia coli [21]): 81.1%; inhibition at 500 µg/mL (Curvularia lunata [22]): 61.1%; inhibition at 100 µg/mL (Alternaria alternata [23]): 57.8%; Mycelial growth (Thanatephorus cucumeris [24]): 4.2 cm; Mycelial growth (Fusarium oxysporum [25]): 2.6 cm; inhibition at 100 µg/mL (Curvularia lunata [26]): 37.8%; Inhibition Zone (Staphylococcus aureus [27]): 7.7 cm; zone of inhibition at 100 µg/mL (Staphylococcus aureus [27]): 88 mm; Mycelial growth (Thanatephorus cucumeris [28]): 6.8 cm; inhibition at 100 µg/mL [29]: 61.1%; inhibition at 500 µg/mL (Thanatephorus cucumeris [30]): 53.3%; Mycelial growth (Alternaria alternata [31]): 3.8 cm |
| CCOC(=O)c1cn(-c2ccc([N+](=O)[O-])cc2[N+](=O)[O-])nc1C | 0 | 4.5 | 91.1 | 86.7 | 0 | 0 | 4.8 | 6 | 76 | 6.3 | 7.8 cm and 4.6 cm | 50 | 55.6 | 46.7 | 30 | 6.5 | 5 | 58.9 | 5.3 | 84.4 | zone of inhibition at 100 µg/mL (Pseudomonas aeruginosa [32]): 0 mm; inhibition at 500 µg/mL (Fusarium oxysporum [20]): 40%; inhibition at 100 µg/mL (Escherichia coli [21]): 51.1%; inhibition at 500 µg/mL (Curvularia lunata [22]): 41.1%; inhibition at 100 µg/mL (Alternaria alternata [23]): 38.9%; Mycelial growth (Thanatephorus cucumeris [24]): 8 cm; Mycelial growth (Fusarium oxysporum [25]): 5.4 cm; inhibition at 100 µg/mL (Curvularia lunata [26]): 27.8%; Inhibition Zone (Staphylococcus aureus [27]): 5.3 cm; zone of inhibition at 100 µg/mL (Staphylococcus aureus [27]): 82 mm; Mycelial growth (Thanatephorus cucumeris [28]): 9 cm; inhibition at 100 µg/mL [29]: 33.3%; inhibition at 500 µg/mL (Thanatephorus cucumeris [30]): 11.1%; Mycelial growth (Alternaria alternata [31]): 5.5 cm |
| CCOC(=O)c1cn(-c2ccc([N+](=O)[O-])cc2[N+](=O)[O-])nc1-c1ccccc1 | 11.1 | 4.4 | 84.4 | 80 | 20 | 24.4 | 3.8 | 5.6 | 74 | 5.3 | 4.3 cm and 7.2 cm | 39 | 47.8 | 57.8 | 41.1 | 5.6 | 51.1 | 40 | 3.8 | 82.2 | Inhibition Zone (Pseudomonas aeruginosa [32]): 2.2 cm; zone of inhibition at 100 µg/mL (Pseudomonas aeruginosa [32]): 18 mm; inhibition at 500 µg/mL (Fusarium oxysporum [20]): 66.7%; inhibition at 100 µg/mL (Escherichia coli [21]): 43.3%; inhibition at 500 µg/mL (Curvularia lunata [22]): 57.8%; inhibition at 100 µg/mL (Alternaria alternata [23]): 38.9%; Mycelial growth (Thanatephorus cucumeris [24]): 6.6 cm; Mycelial growth (Fusarium oxysporum [25]): 3 cm; inhibition at 100 µg/mL (Curvularia lunata [26]): 37.8%; Inhibition Zone (Staphylococcus aureus [27]): 7.6 cm and 3.6 cm; Mycelial growth (Thanatephorus cucumeris [28]): 8 cm; inhibition at 100 µg/mL [29]: 37.8%; inhibition at 500 µg/mL (Thanatephorus cucumeris [30]): 26.6%; Mycelial growth (Alternaria alternata [31]): 5.5 cm |
